# Columns and labels:
# [1] = tested on: IL-1; conditions: RA patients, long term administration; cited from earlier work
# [2] = tested on: TNFα; conditions: RA patients, long term administration; cited from earlier work
# [3] = tested on: human peripheral blood lymphocytes; experiment: Suppression of human PBL proliferation in vitro ([3H]thymidine incorporation), with or without anti-CD3 (X-35); format: cell-based
# Experimental: One measure of immunosuppression is suppression of stimulated peripheral blood lymphocyte (PBL) proliferation in vitro. In the assay detailed in Example 3, PBLs were activated in vitro by addition of anti-CD3 monoclonal antibody (X-35 antibody). At the same time, purified tripterinin or vehicle (control) was added to each culture, at selected concentrations. After 72 hours incubation, tritiated thymidine was added to the culture medium, and thymidine incorporation into DNA was assayed, as a measure of DNA synthesis associated with cell proliferation.
# The ability of tripterifordin to inhibit anti-CD3 stimulated PBL proliferation was assayed at concentrations of 0, 0.78, 3.13, and 12.5 μg/ml, with the results shown in FIG. 9.
# Human peripheral blood lymphocytes were prepared using an established method (Boyum). Human blood buffy coat samples, approximately 25 ml/donor, were obtained from the Stanford University Medical Center Blood Bank. Using sterile technique, the buffy coat samples were gently resuspended in a total volume of 100 ml with the addition of calcium and magnesium free Hank's balanced salt solution (HBSS, obtained from Gibco) at room temperature. A volume of 25 ml of the cell suspension was then layered onto 15 ml of Ficoll-Pacque (Pharmacia LKB Biotechnology, Inc.) in a 50 ml conical centrifuge tube. Tubes were centrifuged in a Beckman GPR tabletop centrifuge (GH-3.7 Rotor) at 400×g for 30 minutes at 15° C.
# Following centrifugation, the PBL suspensions at the interfaces were transferred to new 50 ml tubes using a transfer pipette, and the PBL samples were resuspended in a total volume of 45 ml HBSS and centrifuged at 354×g for 10 minutes at 15° C. Supernatants were discarded. PBL's were resuspended in 10 ml HBSS, combined to make a total of 45 ml HBSS, and centrifuged at 265×g for 10 minutes at 15° C. The cell pellets were suspended in 10 ml of X-Vivo tissue culture medium (Bio Whittaker) and counted using a hemocytometer. Tissue culture medium was then added to achieve a final cell concentration of 1× 10^6 cells/ml. Additional dilutions were carried out as required for each assay.
# Assays were carried out in 96 well sterile tissue culture plates (Costar 3790 and Costar 3595). A volume of 150 μl of X-Vivo medium or sterile distilled water was added to the outer wells of the plate to prevent evaporation of medium within the experimental wells. PBL's from 2 different donors were used in parallel in all experiments. A volume of 100 μl PBL suspension was added to each well using a multichannel pipette. Plates were incubated in an atmosphere of 93% air/7% CO2 in a tissue culture incubator at 37° C. X-35 (AMAC #0178), an anti CD-3 surface antigen antibody, was used at 5 ng/ml to stimulate PBL proliferation.
# Tripterinin or tripterifordin was dissolved in ethanol (10 mg/ml) and then diluted in sterile X-Vivo tissue culture medium to obtain the final concentrations required for each experiment.
# Four hours prior to the conclusion of incubation, 50 μl of X-Vivo tissue culture medium containing 8 μCi/ml [^3 H]Thymidine (Amersham, 49 Ci/mmol) was added to each tissue culture well. After 72 hours total incubation time, the cells were removed from the tissue culture wells and applied to filter paper using a cell harvester (Brandel Model MB-24). The filter paper was dried for one hour under a heat lamp and then cut into 1 cm discs. Each sample was placed in a scintillation vial containing 2 ml of scintillation fluid (Biosafe, Research Products International Corp.). Samples were counted in a Beckman LS 6000SC scintillation counter.
# [4] = tested on: mouse thymocytes; experiment: Inhibition of IL-1 action: IL-1 stimulated mouse thymocyte proliferation in presence of PHA; format: cell-based; conditions: tripterifordin 3.13 μg/ml, about 3 μg/ml, tripterinin 0.02 to 1 μg/ml
# Experimental: The ability of tripterinin and tripterifordin to suppress the cell-proliferative effect of IL-1 in mouse thymocytes, an index of IL-1 action (O'Gara), was also examined. In this study, mouse thymocytes in culture were stimulated with IL-1 in the presence of phytohemagglutinin (PHA) and increasing concentrations of purified tripterinin or tripterifordin. The cells were cultured for 72 hours, and during the last four hours, incubated with tritiated thymidine. DNA synthesis was assessed by measurement of radiolabeled thymidine incorporation.
# Mouse thymocytes were prepared, and the action of IL-1, which stimulates thymocyte proliferation, was measured using standard techniques (O'Gara). Three to six week old C3H/HeN mice were obtained from Simonsen Laboratories, Gilroy, Calif. and sacrificed by CO2 inhalation. Thymi were removed, separated from adherent non-thymic tissue, homogenized in Hank's balanced salt solution (Gibco) using a glass homogenizer, and centrifuged at 180×g for 10 minutes at 15° C. Following an additional wash in HBSS, the thymocytes were resuspended in RPMI 1640 tissue culture medium (Gibco) containing 50 μM 2-mercaptoethanol (Fisher), 2 mM glutamine (Gibco), 1 mM sodium pyruvate, non-essential amino acids, penicillin (100 U/ml) streptomycin (100 μg/ml), 10% heat inactivated fetal bovine serum and Phytohemagglutinin (PHA, Pharmacia, final concentration 10 μg/ml). Cells were cultured in round-bottom 96 well microtiter tissue culture plates, 6×10^5 cells per well in a volume of 100 μl. Tripterinin or tripterifordin was diluted in tissue culture medium and added to the wells in the presence and absence of IL-1 (recombinant human IL-1, R&D Systems catalog #201-LB, 0.1 ng/ml). Total volume was 150 μl per well.
# Plates were incubated for 72 hours (95% air/5% CO2, 37° C.). During the last four hours of incubation, [^3 H]-thymidine (Amersham, […]) was added (0.5 μCi per well). Cells were harvested onto Whatman 934-AH glass microfiber filters and counted in a Beckman LS 6000 scintillation counter. Results were expressed as counts per minute per well.
# [5] = tested on: HIV; conditions: cited from earlier work
Compound,serum level of IL-1 [1],serum level of TNFα [2],"inhibition of anti-CD3 stimulated PBL proliferation ([3]; highest concentration tested, 12.5 μg/ml, FIG. 9)","inhibitory effect on PBL proliferation ([3]; stimulated and unstimulated (tripterinin), FIG. 9 (tripterifordin))",inhibition of IL-1 stimulated thymocyte proliferation [4],inhibition of IL-1 stimulated thymocyte proliferation ([4]; listed as Tripterifordin),anti-HIV activity [5]
O=C(O)c1cc(/N=N/c2ccc(S(=O)(=O)Nc3ccccn3)cc2)ccc1O [sulfasalazine],decline,decline,,,,,
"C[C@@]1(O)C[C@@]23CC[C@H]4[C@@]5(CCC[C@]4(C)C(=O)OC5)[C@@H]2CC[C@H]1C3 [tripterifordin, reference compound]",,,failed to significantly inhibit PBL proliferation,little or no inhibitory effect,little or no inhibitory effect,failed to inhibit,anti-HIV principle

# Reference: patent US5468772A, “Tripterinin compound and method” (Pharmagenesis, Inc., priority 1993, dated 1995)
